# Measured values taken from patent US20100286181A1, “PYRROLE DERIVATIVES WITH ANTIBACTERIAL ACTIVITY” (ASTRAZENECA AB, priority 2006, published 2010).
# What was measured:
# [1] = system: SPN548; assay: Bacterial susceptibility testing in liquid media (MIC), SPN548; assay type: cell-based; conditions: strain SPN548
# Text: (§1) Compounds may be tested for antimicrobial activity by susceptibility testing in liquid media. Compounds may be dissolved in dimethylsulfoxide and tested in 10 doubling dilutions in the susceptibility assays. The organisms used in the assay may be grown overnight on suitable agar media and then suspended in a liquid medium appropriate for the growth of the organism. The can be was a 0.5 McFarland and a further 1 in 10 dilution can be made into the same liquid medium to prepare the final organism suspension in 100 pt. Plates can be incubated under appropriate conditions at 37° C. for 24 hrs prior to reading. The Minimum Inhibitory Concentration (MIC) may be determined as the lowest drug concentration able to reduce growth by 80% or more.
# [2] = target: GyrB ATPase activity (E. coli GyrA, E. coli GyrB) (Escherichia coli, UniProt P0AES6); assay: GyrB ATPase inhibition activity assay (ammonium molybdate/malachite green phosphate detection); assay type: biochemical; conditions: figure quoted may be an average of two or more results
# In short: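 E. coli GyrA/GyrB (2.5 nM each) with 5 μg/ml sheared DNA and 250 μM ATP in 50 mM HEPES pH 7.5, 5.5 mM MgCl2, 75 mM ammonium acetate. Released phosphate detected with ammonium molybdate/malachite green reagent. IC50 may be an average of two or more results.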
# [3] = system: MCA445; assay: Bacterial susceptibility testing in liquid media (MIC), MCA445; assay type: cell-based; conditions: strain MCA445
# Text: as §1
# [4] = system: HIN446; assay: Bacterial susceptibility testing in liquid media (MIC), HIN446; assay type: cell-based; conditions: strain HIN446
# Text: as §1
# [5] = system: EFM073; assay: Bacterial susceptibility testing in liquid media (MIC), EFM073; assay type: cell-based; conditions: strain EFM073
# Text: as §1
# [6] = system: SAU516; assay: Bacterial susceptibility testing in liquid media (MIC), SAU516; assay type: cell-based; conditions: strain SAU516
# Text: as §1
# [7] = system: Streptococcus pneumoniae; assay: Bacterial susceptibility testing in liquid media (MIC), Streptococcus pneumoniae; assay type: cell-based; conditions: against Streptococcus pneumoniae; lowest concentration reducing growth by 80% or more, 37° C., 24 hrs
# Text: as §1
Structure (SMILES),IC50 [2] [nM],other results
"CNC(=O)c1nc(N2CCC(NC(=O)c3[nH]c(C)c(Cl)c3Cl)C3(C2)OCCCO3)sc1C(=O)O (centres unmarked) [Example 18, 2-(11-{[(3,4-Dichloro-5-methyl-1H-pyrrol-2-yl)carbonyl]amino}-1,5-dioxa-8-azaspiro[5.5]undec-8-yl)-4-[(methylamino)carbonyl]-1,3-thiazole-5-carboxylic acid]",< 9.77,MIC SPN548 [1]: < 0.063 µg/mL; MIC MCA445 [3]: < 0.063 µg/mL; MIC HIN446 [4]: 0.5 µg/mL; MIC EFM073 [5]: 0.25 µg/mL; MIC SAU516 [6]: 0.25 µg/mL
"Cc1[nH]c(C(=O)NC2CCN(c3ncc(C(=O)O)s3)CC23OCCCO3)c(Cl)c1Cl (centres unmarked) [Example 16, 2-(11-{[(3,4-Dichloro-5-methyl-1H-pyrrol-2-yl)carbonyl]amino}-1,5-dioxa-8-azaspiro[5.5]undec-8-yl)-1,3-thiazole-5-carboxylic acid]",< 9.77,MIC SPN548 [1]: < 0.063 µg/mL; MIC MCA445 [3]: 0.13 µg/mL; MIC HIN446 [4]: 1 µg/mL; MIC EFM073 [5]: 1 µg/mL; MIC SAU516 [6]: 2 µg/mL
"COC1(OC)CN(c2ncc(C(=O)O)s2)CCC1NC(=O)c1[nH]c(C)c(Cl)c1Cl (centres unmarked) [Example 20, 2-(4-{[(3,4-Dichloro-5-methyl-1H-pyrrol-2-yl)carbonyl]amino}-3,3-dimethoxypiperidin-1-yl)-1,3-thiazole-5-carboxylic acid]",< 67.1,MIC SPN548 [1]: 0.13 µg/mL; MIC MCA445 [3]: 0.5 µg/mL; MIC HIN446 [4]: 1 µg/mL; MIC EFM073 [5]: 2 µg/mL; MIC SAU516 [6]: 2 µg/mL
"CONC(=O)c1cnc(N2CC[C@@H](NC(=O)c3[nH]c(C)c(Cl)c3Cl)[C@@H](n3ccnn3)C2)s1 [Example 120, 2-[(3S,4R)-4-{[(3,4-Dichloro-5-methyl-1H-pyrrol-2-yl)carbonyl]amino}-3-(1H-1,2,3-triazol-1-yl)piperidin-1-yl]-N-methoxy-1,3-thiazole-5-carboxamide]",19.6,
"COC(=O)c1cnc(N2CCC(NC(=O)c3[nH]c(C)c(Cl)c3Cl)C3(C2)OCCO3)s1 (centres unmarked) [Example 1, Methyl 2-(10-{[(3,4-dichloro-5-methyl-1H-pyrrol-2-yl)carbonyl]amino}-1,4-dioxa-7-azaspiro[4.5]dec-7-yl)-1,3-thiazole-5-carboxylate]",463,MIC [7]: 1 µg/mL
COCCNC(=O)c1nc(N2CC[C@@H](NC(=O)c3[nH]c(C)c(Cl)c3Cl)[C@@H](n3cc(C)nn3)C2)sc1C(=O)O [Example 104],< 9.77,
"COC(=O)c1cnc(N2CC[C@H](NC(=O)c3[nH]c(C)c(Cl)c3Cl)[C@H](n3cncn3)C2)s1 (racemic) [Example 39, cis(±)Methyl 2-[4-{[(3,4-dichloro-5-methyl-1H-pyrrol-2-yl)carbonyl]amino}-3-(1H-1,2,4-triazol-1-yl)piperidin-1-yl]-1,3-thiazole-5-carboxylate]",33.4,
"CCOC(=O)c1sc(N2CC[C@H](NC(=O)c3[nH]c(C)c(Cl)c3Cl)[C@H](n3cncn3)C2)nc1C(=O)N[C@@H](C)COC (racemic) [Example 48, cis(±)Ethyl 2-[4-{[(3,4-dichloro-5-methyl-1H-pyrrol-2-yl)carbonyl]amino}-3-(1H-1,2,4-triazol-1-yl)piperidin-1-yl]-4-({[(1S)-2-methoxy-1-methylethyl]amino}carbonyl)-1,3-thiazole-5-carboxylate]",36.5,
"C=CCOC(=O)c1sc(N2CCC(NC(=O)c3[nH]c(C)c(Cl)c3Cl)/C(=N/OC)C2)nc1C(=O)NCCOC (centres unmarked) [Example 30, Allyl 2-[(3E)-4-{[(3,4-dichloro-5-methyl-1H-pyrrol-2-yl)carbonyl]amino}-3-(methoxyimino)piperidin-1-yl]-4-{[(2-methoxyethyl)amino]carbonyl}-1,3-thiazole-5-carboxylate]",86.1,
"Cc1[nH]c(C(=O)NC2CCN(c3ncc(C(=O)O)s3)CC23OCC2(CC2)CO3)c(Cl)c1Cl (centres unmarked) [Example 55, 2-(11-{[(3,4-Dichloro-5-methyl-1H-pyrrol-2-yl)carbonyl]amino}-5,12-dioxa-8-azadispiro[2.2.5.2]tridec-8-yl)-1,3-thiazole-5-carboxylic acid]",< 9.77,
"CNC(=O)c1nc(N2CCC(NC(=O)c3[nH]c(C)c(Cl)c3Cl)C3(C2)OCCCO3)sc1C(=O)OC(C)C (centres unmarked) [Example 8, Isopropyl 2-(11-{[(3,4-dichloro-5-methyl-1H-pyrrol-2-yl)carbonyl]amino}-1,5-dioxa-8-azaspiro[5.5]undec-8-yl)-4-[(methylamino)carbonyl]-1,3-thiazole-5-carboxylate]",73.6,
"Cc1[nH]c(C(=O)N[C@H]2CCN(c3ncc(C(=O)O)s3)C[C@H]2n2cncn2)c(Cl)c1Cl (racemic) [Example 43, cis(±)2-[4-{[(3,4-Dichloro-5-methyl-1H-pyrrol-2-yl)carbonyl]amino}-3-(1H-1,2,4-triazol-1-yl)piperidin-1-yl]-1,3-thiazole-5-carboxylic acid]",< 9.77,
COCc1cn([C@H]2CN(c3nc(C(=O)NC(COC)COC)c(C(=O)O)s3)CC[C@H]2NC(=O)c2[nH]c(C)c(Cl)c2Cl)nn1 [Example 116],< 9.77,
"COC(=O)c1cnc(N2CC[C@H](NC(=O)c3[nH]c(C)c(Cl)c3Cl)[C@H](n3ccnc3)C2)s1 (racemic) [Example 38, cis(±)Methyl 2-[4-{[(3,4-dichloro-5-methyl-1H-pyrrol-2-yl)carbonyl]amino}-3-(1H-imidazol-1-yl)piperidin-1-yl]-1,3-thiazole-5-carboxylate]",90.9,
"COCCNC(=O)c1nc(N2CCC(NC(=O)c3[nH]c(C)c(Cl)c3Cl)C3(C2)OCCCO3)sc1C(=O)O (centres unmarked) [Example 17, 2-(11-{[(3,4-Dichloro-5-methyl-1H-pyrrol-2-yl)carbonyl]amino}-1,5-dioxa-8-azaspiro[5.5]undec-8-yl)-4-{[(2-methoxyethyl)amino]carbonyl}-1,3-thiazole-5-carboxylic acid]",< 9.77,
"COC(=O)c1sc(N2CCC(NC(=O)c3[nH]c(C)c(Cl)c3Cl)C3(C2)OCCO3)nc1C(C)=O (centres unmarked) [Example 2, Methyl 4-acetyl-2-(10-{[(3,4-dichloro-5-methyl-1H-pyrrol-2-yl)carbonyl]amino}-1,4-dioxa-7-azaspiro[4.5]dec-7-yl)-1,3-thiazole-5-carboxylate]",487,
"Cc1[nH]c(C(=O)N[C@H]2CCN(c3ncc(C(N)=O)s3)C[C@H]2n2ccnc2)c(Cl)c1Cl (racemic) [Example 47, cis(±)2-[4-{[(3,4-Dichloro-5-methyl-1H-pyrrol-2-yl)carbonyl]amino}-3-(1H-imidazol-1-yl)piperidin-1-yl]-1,3-thiazole-5-carboxamide]",25.7,
COCC(COC)(COC)NC(=O)c1nc(N2CC[C@@H](NC(=O)c3[nH]c(C)c(Cl)c3Cl)[C@@H](n3cc(C)nn3)C2)sc1C(=O)O [Example 106],< 432,
COCCNC(=O)c1nc(N2CC[C@@H](NC(=O)c3[nH]c(C)c(Cl)c3Cl)[C@@H](n3ccnn3)C2)sc1C(=O)O [Example 100],< 9.77,
"CONC(=O)c1cccc2nc(N3CC[C@H](NC(=O)c4[nH]c(C)c(Cl)c4Cl)[C@H](n4ccnc4)C3)sc12 (racemic) [Example 46, cis(±)2-[4-{[(3,4-Dichloro-5-methyl-1H-pyrrol-2-yl)carbonyl]amino}-3-(1H-imidazol-1-yl)piperidin-1-yl]-N-methoxy-1,3-benzothiazole-7-carboxamide]",< 9.77,
"CCOC(=O)c1cccc2nc(N3CC[C@@H](NC(=O)c4[nH]c(C)c(Cl)c4Cl)[C@@H](n4ccnn4)C3)sc12 [Example 123, Ethyl 2-[(3S,4R)-4-{[(3,4-dichloro-5-methyl-1H-pyrrol-2-yl)carbonyl]amino}-3-(1H-1,2,3-triazol-1-yl)piperidin-1-yl]-1,3-benzothiazole-7-carboxy late]",218,
"COC(=O)c1cnc(N2CC[C@H](NC(=O)c3[nH]c(C)c(Cl)c3Cl)[C@H](n3ccnn3)C2)s1 (racemic) [Example 126, cis(±)Methyl 2-[4-{[(3,4-dichloro-5-methyl-1H-pyrrol-2-yl)carbonyl]amino}-3-(1H-1,2,3-triazol-1-yl)piperidin-1-yl]-1,3-thiazole-5-carboxylate]",32.7,
